Reference: US20180125792A1, “NON-STEROIDAL ANTI-INFLAMMATORY DRUGS FOR COUGH” (BAYER CONSUMER CARE AG, priority 2006, published 2018)

Legend:
[1] = cited from earlier work
[2] = Symptomatic treatment of nonproductive cough in 3 volunteer patients in the final phase of a viral infection; type: in vivo, human
Description: The efficacy of ibuprofen in the symptomatic treatment of nonproductive cough was determined in 3 volunteer patients in the final phase of a viral infection. For this purpose, the patients received oral administration of 400 or 800 mg of ibuprofen (the daily dose was between 400 and 1200 mg). No other medicaments were taken by the patients during the viral infection.
It was observed after administration of ibuprofen that the number of attacks of coughing was reduced by more than 50% relative to the number of attacks of coughing before administration of ibuprofen.
The effects of ibuprofen declined after 6 to 8 hours and the cough reappeared in the former severity.

[3] = 600 mg three times a day for 6 days; cited from earlier work
[4] = oral 400 or 800 mg ibuprofen, patients' report

CC(=O)Nc1ccc(O)cc1 [paracetamol]
alleviation of the symptoms of cough ([1]; 5 days, paracetamol 10 mg/kg 3x a day vs ibuprofen or nimesulide): greater

CC(C)Cc1ccc(C(C)C(=O)O)cc1 (stereo not drawn) [ibuprofen]
number of attacks of coughing reduced relative to the number before administration ([2]; oral 400 or 800 mg ibuprofen (daily dose 400-1200 mg), 3 patients): more than 50%
intensity of the urge to cough [2, 4]: reduced
severity of the attacks of coughing [2, 4]: reduced
patients' rest at night ([2]; oral 400 or 800 mg ibuprofen, without additional cough suppressant): possible to improve the patients' rest at night
symptoms of cough after renewed administrations ([2]; subsequent renewed administrations of ibuprofen): again led to the described improvement
symptoms of cough ([1]; 10 mg/kg, 30 children, uncontrolled study): reduction in the symptoms of cough
number of coughing episodes compared with placebo [3]: reduction in the number of coughing episodes

CS(=O)(=O)Nc1ccc([N+](=O)[O-])cc1Oc1ccccc1 [nimesulide]
fever-reducing effect ([1]; 5 days, nimesulide 2.5 mg/kg 2x a day vs paracetamol or ibuprofen 10 mg/kg 3x a day): better and faster than that of paracetamol or ibuprofen
